Test results taken from patent US7981903B2, “2-[2-{phenylamino}-1H-pyrrolo[2,3-D]pyrimidin-4-yl)amino] benzamide derivatives as IGF-1R inhibitors for the treatment of cancer” (GlaxoSmithKline LLC, priority 2007, dated 2011).
Like-named read-outs stand apart in the source and are kept apart here.

Legend:
ALCL cells [1] = details: cited from earlier work
ALCL cells [2] = details: cited from earlier work; remark: listed apart in the source
human IR (hIR) = target: T1, human IR (hIR) (Homo sapiens, UniProt P06213); test: TR-FRET kinase assay of purified hIR; format: biochemical; details: activated hIR 0.5 nM, 10 μM ATP, values given as pIC50 category
T1 construct: containing amino acid residues 979-1382 of human IR; made in house; host or cells: Sf9 cells (baculovirus), same process as hIGF1R
T1 sequence (P06213 979-1382): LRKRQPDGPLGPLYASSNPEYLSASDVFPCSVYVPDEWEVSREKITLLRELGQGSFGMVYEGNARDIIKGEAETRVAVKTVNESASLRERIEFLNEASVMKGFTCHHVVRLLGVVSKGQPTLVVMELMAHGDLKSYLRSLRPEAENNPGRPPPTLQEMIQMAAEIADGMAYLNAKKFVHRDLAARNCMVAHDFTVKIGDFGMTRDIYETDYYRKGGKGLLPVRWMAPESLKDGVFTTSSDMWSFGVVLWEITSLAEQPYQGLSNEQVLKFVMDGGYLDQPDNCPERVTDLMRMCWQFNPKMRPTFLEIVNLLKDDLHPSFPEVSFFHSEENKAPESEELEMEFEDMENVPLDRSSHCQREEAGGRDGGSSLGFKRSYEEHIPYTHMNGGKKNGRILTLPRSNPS

ALK [3] = target: T2, ALK (Homo sapiens, UniProt Q9UM73); test: ALK enzyme assay (HTRF); format: biochemical; details: 0.25 nM ALK, 15.0 μM ATP, values given as pIC50 category
Summary of the method: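 Final compound range 0.00017 to 10 μM (twelve 1:3 dilutions). Kinase reaction with ATP and biotinylated synthetic peptide runs 120 min at 20° C, stopped with EDTA; phosphotyrosine detected by HTRF after 60 min. Inhibition referenced to DMSO (1%) and EDTA (0.1 M) controls, curve-fitted.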
Target sequence in this assay (Q9UM73 19-1620): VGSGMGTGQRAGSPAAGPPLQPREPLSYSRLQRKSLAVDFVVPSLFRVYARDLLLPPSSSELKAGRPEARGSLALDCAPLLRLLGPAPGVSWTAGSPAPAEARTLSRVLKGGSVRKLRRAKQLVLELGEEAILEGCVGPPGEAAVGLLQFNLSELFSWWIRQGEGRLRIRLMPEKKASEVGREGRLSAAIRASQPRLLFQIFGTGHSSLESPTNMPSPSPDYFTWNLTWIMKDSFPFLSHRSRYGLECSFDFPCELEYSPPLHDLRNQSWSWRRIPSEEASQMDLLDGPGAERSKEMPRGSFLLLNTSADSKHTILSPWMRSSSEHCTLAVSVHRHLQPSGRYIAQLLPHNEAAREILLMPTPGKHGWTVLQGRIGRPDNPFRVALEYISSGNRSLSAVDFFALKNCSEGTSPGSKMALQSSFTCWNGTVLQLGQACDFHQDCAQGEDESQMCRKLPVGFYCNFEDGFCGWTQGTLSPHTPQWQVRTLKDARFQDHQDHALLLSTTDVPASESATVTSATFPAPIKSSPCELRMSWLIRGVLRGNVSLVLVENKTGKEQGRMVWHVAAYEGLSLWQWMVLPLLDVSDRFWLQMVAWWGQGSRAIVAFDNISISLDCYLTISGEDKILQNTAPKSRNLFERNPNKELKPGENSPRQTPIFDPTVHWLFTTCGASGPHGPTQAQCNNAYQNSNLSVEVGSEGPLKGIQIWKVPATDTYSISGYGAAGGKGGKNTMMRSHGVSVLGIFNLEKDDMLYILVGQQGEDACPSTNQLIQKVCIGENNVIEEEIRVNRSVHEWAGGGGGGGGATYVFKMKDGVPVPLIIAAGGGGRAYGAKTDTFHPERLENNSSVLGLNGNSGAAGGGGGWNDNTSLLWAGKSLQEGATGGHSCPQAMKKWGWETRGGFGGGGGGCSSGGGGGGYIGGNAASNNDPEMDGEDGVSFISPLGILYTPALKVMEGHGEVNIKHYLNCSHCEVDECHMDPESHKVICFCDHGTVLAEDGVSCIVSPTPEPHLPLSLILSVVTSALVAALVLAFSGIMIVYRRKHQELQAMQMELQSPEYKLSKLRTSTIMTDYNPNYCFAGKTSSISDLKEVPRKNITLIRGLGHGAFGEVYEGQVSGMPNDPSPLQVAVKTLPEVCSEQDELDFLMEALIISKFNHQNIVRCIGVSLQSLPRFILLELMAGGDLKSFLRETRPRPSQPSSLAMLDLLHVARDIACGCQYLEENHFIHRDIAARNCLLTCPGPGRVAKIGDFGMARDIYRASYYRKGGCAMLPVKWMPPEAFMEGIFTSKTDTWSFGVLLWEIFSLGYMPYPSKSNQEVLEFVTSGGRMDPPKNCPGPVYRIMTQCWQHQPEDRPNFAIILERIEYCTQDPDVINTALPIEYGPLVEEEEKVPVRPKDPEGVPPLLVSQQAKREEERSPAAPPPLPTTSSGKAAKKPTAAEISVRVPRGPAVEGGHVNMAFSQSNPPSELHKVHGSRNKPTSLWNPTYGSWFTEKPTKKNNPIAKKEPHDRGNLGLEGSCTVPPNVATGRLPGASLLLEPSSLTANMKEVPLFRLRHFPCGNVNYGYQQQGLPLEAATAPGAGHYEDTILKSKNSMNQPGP

Colo205 = test: Inhibition of cell proliferation (CellTiter-Glo or InCell analyzer), Colo205; format: cell-based; details: Homo sapiens, COLO 205, 72 h / 3 days, values given as IC50 category
Summary of the method: In one

NCI-H929 = test: Inhibition of cell proliferation (CellTiter-Glo or InCell analyzer), NCI-H929; format: cell-based; details: Homo sapiens, 72 h / 3 days, values given as IC50 category
Procedure: Cell proliferation was measured by either CellTiter-Glo (measures cellular ATP level as a surrogate for total cell number) or by InCell analyzer (counts number of nuclei as a measure of cell number).
For CellTiter-Glo assay, exponentially growing cell lines of different tumor origins, cultured in appropriate media containing 10% fetal bovine serum at 37° C. in a 5% CO2 incubator, were plated at low density (less than 2000cells/well) in 96-well plates. Twenty four hours post-plating, cells were treated with different concentrations of test compounds ranging from 30 uM to 1.5 nM. Several wells were left untreated as a control. Seventy two hours post-treatment, cell numbers were determined using 50-100 ul per well of CellTiter-Glo (Promega #G7573). Plates were incubated at 37° C. for 30 minutes and the chemiluminescent signal was read on the Victor V or Envison 2100 reader.
For InCell Analyser assay, various cell lines of different tumor origins were grown to 70-80% confluency in appropriate culture media containing 10% fetal bovine serum at 37° C. in a 5% CO2 incubator. On day −1, cells were seeded at 2 densities in 384-well plates and incubated at 37° C. overnight. Stock compound plates were prepared in advance which contained dimethyl sulfoxide (DMSO) alone and a 9-point half-log decreasing dose range of the compound in DMSO. The compound plates were stored at −80° C. and each plate was only thawed once and used. On day 0, the main assay plates received compound or DMSO via a sonic delivery system (ECHO). The highest final concentration of compound of the dose range in the culture plates was 10 uM. These plates were cultured at 37° C. for 3 days. […] On day 3, the compound treated plates were stained and fixed to measure proliferation, apoptosis, and mitotic index using an InCelL1000 analyser. A nuclear stain was used to identify cells in the wells. By counting the number of nuclei, the proliferation index of compound treated groups were calculated as a percentage relative to the DMSO control, which was set to 100%. The IC50 values were calculated using model 205 in ExcelFit.
IC50 (nM) values for compounds of select examples were categorized by relative inhibition of cell proliferation.

[4] = target: T3, NIH-3T3 cells overexpressing human IGF-1R (Homo sapiens, UniProt P08069); test: IGF-1R cellular autophosphorylation (DELFIA); format: cell-based
T3 construct: expressed in transfected cells; host or cells: NIH-3T3 (mouse fibroblasts)
T3 sequence (P08069 31-1367): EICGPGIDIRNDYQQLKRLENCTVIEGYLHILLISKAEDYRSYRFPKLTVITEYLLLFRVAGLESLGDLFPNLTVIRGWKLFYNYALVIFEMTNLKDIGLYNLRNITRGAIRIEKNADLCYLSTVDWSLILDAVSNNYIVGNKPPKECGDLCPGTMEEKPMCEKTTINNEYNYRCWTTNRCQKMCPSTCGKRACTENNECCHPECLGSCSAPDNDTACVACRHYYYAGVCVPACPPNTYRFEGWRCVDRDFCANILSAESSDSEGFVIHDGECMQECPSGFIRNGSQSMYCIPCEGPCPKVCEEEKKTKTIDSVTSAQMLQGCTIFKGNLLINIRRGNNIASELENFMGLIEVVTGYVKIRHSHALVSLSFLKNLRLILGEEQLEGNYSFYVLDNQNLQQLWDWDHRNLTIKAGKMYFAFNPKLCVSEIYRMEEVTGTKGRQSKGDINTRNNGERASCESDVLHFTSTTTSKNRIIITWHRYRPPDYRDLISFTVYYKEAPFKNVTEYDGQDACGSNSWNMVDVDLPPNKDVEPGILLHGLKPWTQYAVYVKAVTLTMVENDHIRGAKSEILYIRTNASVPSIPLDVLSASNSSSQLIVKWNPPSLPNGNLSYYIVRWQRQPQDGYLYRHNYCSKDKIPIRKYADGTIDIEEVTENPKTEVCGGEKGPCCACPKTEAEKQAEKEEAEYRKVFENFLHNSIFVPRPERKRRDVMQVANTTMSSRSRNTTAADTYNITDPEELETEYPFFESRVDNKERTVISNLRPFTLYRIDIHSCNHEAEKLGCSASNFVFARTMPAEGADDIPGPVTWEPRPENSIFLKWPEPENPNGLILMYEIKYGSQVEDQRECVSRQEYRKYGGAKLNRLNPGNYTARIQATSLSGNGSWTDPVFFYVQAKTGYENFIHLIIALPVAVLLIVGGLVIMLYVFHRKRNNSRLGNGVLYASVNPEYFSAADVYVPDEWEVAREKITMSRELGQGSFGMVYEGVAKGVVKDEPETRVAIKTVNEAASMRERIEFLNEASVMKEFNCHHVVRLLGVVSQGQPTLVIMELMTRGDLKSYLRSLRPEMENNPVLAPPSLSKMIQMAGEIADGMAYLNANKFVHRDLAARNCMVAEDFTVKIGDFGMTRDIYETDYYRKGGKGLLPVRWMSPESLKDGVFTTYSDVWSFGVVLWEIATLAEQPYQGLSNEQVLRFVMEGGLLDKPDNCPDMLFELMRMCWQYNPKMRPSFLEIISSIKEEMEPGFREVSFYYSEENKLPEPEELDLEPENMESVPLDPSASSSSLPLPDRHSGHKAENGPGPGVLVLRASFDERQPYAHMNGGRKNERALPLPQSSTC
Summary of the method: (§1)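 Receptor autophosphorylation measured by DELFIA, capturing IGF-1R or IRβ and detecting with europium anti-pTyr, reported as percent of IGF-1- or insulin-stimulated signal. Compounds (30 uM to 1.5 nM) added 2 h before ligand, then 15 min stimulation (IGF-1 30 ng/ml or insulin 3 ug/ml).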

[5] = target: T4, NIH-3T3 cells overexpressing human IR (Homo sapiens, UniProt P06213); test: IR cellular autophosphorylation (DELFIA); format: cell-based; details: 2 h compound, insulin 3 ug/ml for 15 minutes, IC50 category
T4 construct: expressed in transfected cells; host or cells: NIH-3T3 (mouse fibroblasts)
T4 sequence (P06213 28-1382): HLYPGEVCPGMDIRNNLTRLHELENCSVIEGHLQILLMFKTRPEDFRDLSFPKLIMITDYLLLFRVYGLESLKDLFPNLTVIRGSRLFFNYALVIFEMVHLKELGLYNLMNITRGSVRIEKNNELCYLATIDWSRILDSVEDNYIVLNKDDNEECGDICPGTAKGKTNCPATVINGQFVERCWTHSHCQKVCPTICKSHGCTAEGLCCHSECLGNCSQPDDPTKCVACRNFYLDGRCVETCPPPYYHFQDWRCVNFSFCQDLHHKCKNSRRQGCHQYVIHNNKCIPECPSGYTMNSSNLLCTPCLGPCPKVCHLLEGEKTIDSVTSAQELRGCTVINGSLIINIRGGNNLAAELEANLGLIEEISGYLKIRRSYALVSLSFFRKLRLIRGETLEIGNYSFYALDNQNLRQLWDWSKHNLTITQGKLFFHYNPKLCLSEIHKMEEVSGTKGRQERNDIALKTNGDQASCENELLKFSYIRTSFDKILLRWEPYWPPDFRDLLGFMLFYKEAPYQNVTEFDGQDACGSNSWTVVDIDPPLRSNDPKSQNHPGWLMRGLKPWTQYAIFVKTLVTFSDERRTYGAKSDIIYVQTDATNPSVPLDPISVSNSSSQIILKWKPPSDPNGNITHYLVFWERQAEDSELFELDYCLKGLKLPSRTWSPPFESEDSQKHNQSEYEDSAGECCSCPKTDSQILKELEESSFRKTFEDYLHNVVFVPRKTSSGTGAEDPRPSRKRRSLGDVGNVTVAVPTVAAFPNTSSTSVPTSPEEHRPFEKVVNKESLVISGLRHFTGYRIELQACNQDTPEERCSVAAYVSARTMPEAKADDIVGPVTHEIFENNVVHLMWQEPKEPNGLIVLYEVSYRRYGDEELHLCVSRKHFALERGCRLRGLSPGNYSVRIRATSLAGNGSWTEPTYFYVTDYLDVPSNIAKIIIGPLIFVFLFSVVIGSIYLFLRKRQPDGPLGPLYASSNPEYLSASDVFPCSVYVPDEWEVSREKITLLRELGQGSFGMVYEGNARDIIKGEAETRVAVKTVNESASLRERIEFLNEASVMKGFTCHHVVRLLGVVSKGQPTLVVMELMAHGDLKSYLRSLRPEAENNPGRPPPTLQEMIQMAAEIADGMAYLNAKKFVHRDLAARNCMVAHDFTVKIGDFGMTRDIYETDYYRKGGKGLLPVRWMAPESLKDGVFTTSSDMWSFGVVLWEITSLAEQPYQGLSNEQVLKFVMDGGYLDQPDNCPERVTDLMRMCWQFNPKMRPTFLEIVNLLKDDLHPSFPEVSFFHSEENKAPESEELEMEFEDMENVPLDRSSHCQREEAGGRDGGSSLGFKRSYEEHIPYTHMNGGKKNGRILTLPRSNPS
Summary of the method: as §1

ALK [6] = target: T2, ALK; design: host or cells: ALCL cells; the other entry of the earlier key: NPM1 (P06748, Nucleophosmin); details: cited from earlier work
human IGF1R (hIGF1R) = target: T5, human IGF1R (hIGF1R) (Homo sapiens, UniProt P08069); test: TR-FRET kinase assay of purified hIGF1R; format: biochemical; details: activated hIGF1R 0.5 nM, 10 μM ATP, values given as pIC50 category, read-out: IGF-1R pIC50 (converted)
T5 construct: containing amino acid residues 957-1367 of human IGF1R; made in house; host or cells: Sf9 cells (baculovirus)
T5 sequence (P08069 957-1367): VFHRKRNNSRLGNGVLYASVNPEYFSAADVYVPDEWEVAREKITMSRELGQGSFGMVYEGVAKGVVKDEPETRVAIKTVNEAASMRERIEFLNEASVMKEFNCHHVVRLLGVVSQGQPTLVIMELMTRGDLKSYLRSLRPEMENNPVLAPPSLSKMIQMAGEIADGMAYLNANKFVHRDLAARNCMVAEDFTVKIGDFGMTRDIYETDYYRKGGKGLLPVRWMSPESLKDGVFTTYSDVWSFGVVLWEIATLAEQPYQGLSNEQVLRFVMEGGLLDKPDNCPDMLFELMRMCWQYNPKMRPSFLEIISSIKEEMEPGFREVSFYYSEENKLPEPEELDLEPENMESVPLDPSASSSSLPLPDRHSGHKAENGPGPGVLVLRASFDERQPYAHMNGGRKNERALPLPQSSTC

Row | Compound | IC50 (human IR (hIR)) [nM] | IC50 (ALK [3]) [nM] | IC50 (Colo205) [nM] | IC50 (NCI-H929) [nM] | IC50 [4] [nM] | IC50 [5] [nM] | IC50 (human IGF1R (hIGF1R)) [nM] | inhibition of the growth of ALCL cells (ALCL cells [1]; experimental systems in vitro) | inhibition of the growth of ALCL cells (ALCL cells [2]; experimental systems in vivo) | activity against ALCL cells (ALCL cells [1]; in vitro) | activity in tumor xenograft models (ALCL cells [2]; tumor xenograft models) | consequence of the inhibition of ALK autophosphorylation in the cells (ALK [6]) | inhibition of ALK autophosphorylation (ALK [6])
1 | C[C@@H](Oc1cc(-c2cnn(C3CCNCC3)c2)cnc1N)c1c(Cl)ccc(F)c1Cl [PF2341066] | – | – | – | – | – | – | – | inhibit the growth of ALCL cells | inhibit the growth of ALCL cells | – | – | – | –
2 | 5-chloro-2,4-diaminophenylpyrimidine [NVP-TAE68] | – | – | – | – | – | – | – | – | – | active against ALCL cells | active | cell cycle arrest and apoptosis | inhibited ALK autophosphorylation

More lines, main results first:

Row | IC50 (human IR (hIR)) [nM] | IC50 (ALK [3]) [nM] | IC50 (Colo205) [nM] | IC50 (NCI-H929) [nM] | IC50 [4] [nM] | IC50 [5] [nM] | IC50 (human IGF1R (hIGF1R)) [nM] | Compound | inhibition of the growth of ALCL cells (ALCL cells [1]; experimental systems in vitro) | inhibition of the growth of ALCL cells (ALCL cells [2]; experimental systems in vivo) | activity against ALCL cells (ALCL cells [1]; in vitro) | activity in tumor xenograft models (ALCL cells [2]; tumor xenograft models) | consequence of the inhibition of ALK autophosphorylation in the cells (ALK [6]) | inhibition of ALK autophosphorylation (ALK [6])
3 | 0.251 to 1 | 0.251 to 1 | < 250 | < 250 | < 100 | < 100 | – | CCCN1CCC=C(c2ccc(OC)c(Nc3nc(Nc4ccc(F)cc4C(N)=O)c4cc[nH]c4n3)c2)C1 [Example 57, 5-fluoro-2-[(2-{[2-(methyloxy)-5-(1-propyl-1,2,5,6-tetrahydro-3-pyridinyl)phenyl]amino}-1H-pyrrolo[2,3-d]pyrimidin-4-yl)amino]benzamide] | – | – | – | – | – | –
4 | 0.251 to 1 | – | < 250 | < 250 | < 100 | < 100 | 0.251 to 1 | COc1cc2c(cc1Nc1nc(Nc3cccc(F)c3C(N)=O)c3c(F)c[nH]c3n1)N(C(=O)CN(C)C)CC2 [Example 252, 2-[(2-{[1-(N,N-dimethylglycyl)-5-(methyloxy)-2,3-dihydro-1H-indol-6-yl]amino}-5-fluoro-1H-pyrrolo[2,3-d]pyrimidin-4-yl)amino]-6-fluorobenzamide] | – | – | – | – | – | –
5 | 0.251 to 1 | 0.251 to 1 | < 250 | < 250 | < 100 | 100 to 500 | – | COc1cc(N2CCN(C(C)C)CC2)ccc1Nc1nc(Nc2ccc(F)cc2C(N)=O)c2cc[nH]c2n1 [Example 60, 5-fluoro-2-[(2-{[4-[4-(1-methylethyl)-1-piperazinyl]-2-(methyloxy)phenyl]amino}-1H-pyrrolo[2,3-d]pyrimidin-4-yl)amino]benzamide] | – | – | – | – | – | –
